Measurements taken from PubChem BioAssay (NCI).
“And” between values parts separate entries of the source, which are not always exact repeats. Identical values can stand only once.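 Following 48 hours of exposure in 96-well plates, responses at five concentrations were used to interpolate endpoints linearly. GI50 = concentration required for 50% inhibition of growth. The concentration for full growth arrest is given as TGI.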 *1 amine or outer side, *2 acyl side, *3 side chain or, on linkers, in order; H or OH if unused. Where a SMILES comes first, the peptide text is derived from it. Bridges are numbered along the chain shown (N, C = ends). [ ]: non-standard residue; d: D form. The star is where a group is joined. Phe(3,5-F2) = N[C@@H](Cc1cc(F)cc(F)c1)C(=O)O; Pro(4R-Me) = C[C@H]1CN[C@H](C(=O)O)C1; aThr = C[C@H](O)[C@H](N)C(=O)O; Pip = O=C(O)[C@@H]1CCCCN1; X10 = Fc1cc(C2CC2)ccc1N*; Abu = CC[C@H](N)C(=O)O; CO = O=C([*:1])[*:2]

system: MDA-MB-468 breast; assay: DTP human tumour cell line panel, 48 h

SMILES | GI50 | TGI
CC(=O)Nc1ccc2c(C3=C(c4cn(C)c5ccccc45)C(=O)NC3=O)cn(C)c2c1 | 988 nM | > 7220 nM
CCn1cc(C(=O)N/N=C/c2ccc(Br)cc2)c(=O)c2cc(F)c(N3CCNC(C)C3)c(F)c21 (stereo not drawn) | 1590 nM | 3090 nM
Cc1cc(Nc2ncc(F)c(N[C@H]3[C@@H](C(N)=O)[C@@H]4C=C[C@H]3C4)n2)ccc1N1CCN(C)CC1 | < 16.1 nM | 1260 nM
COc1ccc(F)cc1/C=C/C(=O)/C=C(/C=C/c1cc(F)ccc1OC)OB(F)F | 1620 nM | 4370 nM
COc1cnc2c(c1)C(=O)c1c-2n(CCCBr)c(=O)c2cc([N+](=O)[O-])ccc12 | 291 nM | 955 nM
COc1cc(C(C)c2ccc3c(ccn3C)c2)cc(OC)c1OC (stereo not drawn) | < 10 nM | 62100 nM
O=[N+]([O-])c1ccc2scc3c4ccccc4nc-3c2c1 | 919 nM | 2250 nM
Cc1ccc(C)c(COc2cc(NC(=O)c3ccc4c(c3)OCO4)ccc2N(C)S(C)(=O)=O)c1 | 114 nM | 440 nM
O=C(CNc1c(Cl)cccc1Cl)Nc1ccc(-c2nc3ccccc3s2)cc1 | 38.1 nM | 219 nM
CCCCCc1c(C)[nH]c(/C=C2\N=C(c3ccc[nH]3)C=C2Oc2ccccc2)c1C | 10.4 nM | 301 nM
O=C(Nc1ccc(Oc2cccc(Cl)c2)c(Cl)c1)c1cnccn1 | 255 nM | > 15800 nM
COc1cccc2cc(N(C)c3ncnc4ccccc34)ccc12 | < 10 nM | 4740 nM
COCCNCCc1cccc(Nc2ncc3c(n2)-c2ccccc2C(c2ccccc2F)C3)c1 (stereo not drawn) | 1900 nM and 2000 nM | 3700 nM and 3860 nM
O=C(NC1CCC(Br)CC1)C1CCCC(S(=O)(=O)NC2CCCCC2)C1 (stereo not drawn) | 6440 nM | 24900 nM
c1ccc(CSc2nnc3c4c5c(sc4nc(-c4cccnc4)n23)CCCCCC5)cc1 | 568 nM | 4120 nM
CC[C@@H]1NC(=O)[C@@H]2CCCCN2C(=O)[C@@H]2CCCN2C(=O)[C@@H](NC(=O)[C@H](Cc2cc(F)cc(F)c2)NC(=O)Nc2ccc(C3CC3)cc2F)[C@H](C)OC(=O)[C@@H]2C[C@@H](C)CN2C1=O ({X10-CO}-[Phe(3,5-F2)][aThr]P[Pip][Abu][Pro(4R-Me)]; ester 2-C) | 26.7 nM | 149 nM
CC/C=C\C/C=C\C[C@H]1C/C=C2/C(=O)C=C[C@@H]2C/C=C\CCC(=O)O1 | 838 nM | 2530 nM
Oc1ccc(CCl)c2cccnc12 | 3390 nM | 54300 nM

SMILES | GI50 | TGI
FC(F)(F)CNc1nccc(-c2cnn3ncccc23)n1 | 8490 nM | > 25000 nM
CCN(CC)c1ccc2c(cc1=O)[C@@H](NC(C)=O)CCc1cc(OC)c(OC)c(OC)c1-2 | 130 nM | –
C[C@]12CC[C@H](OC3OC(O)C(O)C(O)C3O)C=C1CCC1C2CC[C@]2(C)[C@@H](c3ccc(=O)oc3)CC[C@]12O (stereo partly drawn) | 3.79 nM and 5.12 nM | 20.2 nM and 14.5 nM
N=C1S/C(=C/c2ccc(-c3ccc4c(c3)C(=O)NC4=O)o2)C(=O)N1c1ccc(Br)cc1 | 4570 nM | > 100000 nM
CCC[C@H](N[C@H]1CCc2cc(F)cc(F)c2C1)C(=O)Nc1cn(C(C)(C)CNCC(C)(C)C)cn1 | – | 74600 nM and 21100 nM
Nc1c(C(=O)Nc2ccccn2)sc2nc3c(cc12)CCCCC3 | 1050 nM | > 50000 nM
Cn1cc(C2=C(c3c4n(c5ccccc35)CCN(C(N)=S)C4)C(=O)NC2=O)c2ccccc21 | 3350 nM | > 21000 nM
Cc1nc2ccccc2c(/C=C/c2ccc(Cl)cc2)c1C(=O)/C=C/c1ccc(F)cc1 | 1800 nM | 3730 nM
FC(F)(F)c1ccc(CNc2ccc(Cc3c[nH]c4ncc(Cl)cc34)cn2)cn1 | 5100 nM and 3770 nM | 34400 nM and > 10000 nM
O=C1Nc2ccccc2C1(c1c[nH]c2ccccc12)c1c[nH]c2ccccc12 | 2080 nM | 4560 nM
ClC1=C(Cl)C(Cl)=C(Cl)C1=Cc1ccccc1 | 1310 nM | 2690 nM
O=c1[nH]c2ccc(N=Cc3c(O)[nH]c4ccccc34)cc2[nH]1 | > 25000 nM | > 25000 nM
COc1cc(-c2nn(-c3ccc(NC(=O)NCCCNC(=O)c4ccccc4)cc3)cc2-c2ccncc2)ccc1Cl | 284 nM | 827 nM
CC(C)=NNc1ncnc2c1ncn2C1OC(CO)C(O)C1O (stereo not drawn) | 499 nM | 3900 nM
COc1ccc(C(O)c2cc3c(N)c(C(=O)Nc4cccc(OC)c4)sc3nc2C)cc1 (stereo not drawn) | 1230 nM | 4610 nM
O=C(O)c1sccc1O | 32900 nM | > 100000 nM
COc1cc(OC)cc(C2C(C#N)=C(N)Oc3c2ccc2ccc(O)cc32)c1 (stereo not drawn) | < 10 nM | 980 nM
